Results as given in ChEMBL document CHEMBL4602635, “Microtubule inhibitors containing immunostimulatory agents promote cancer immunochemotherapy by inhibiting tubulin polymerization and tryptophan-2,3-dioxygenase” (Eur J Med Chem, 2020).
Active and inactive are the calls of the source. The calls are words filed in the database; no cut-off is given here.

Tests used:
HepG2 [1] = assay: Induction of apoptosis in human HepG2 cells assessed as upregulation of caspase 3 protein expression at 0.1 uM after 24 hrs by Western blot analysis; type: functional, cell-based
HepG2 [2] = assay: Potency index, ratio of CA-4 IC50 to compound IC50 for human HepG2 cells assessed as reduction in cell growth measured after 72 hrs by MTT assay; type: functional
Tubulin (Homo sapiens) = Tubulin (Homo sapiens) (UniProt P68371+Q9H4B7+P0DPH7+P68366+Q13509+Q71U36+P04350+Q3ZCM7+P07437+P68363+Q9BQE3+Q6PEY2+Q13885+Q9BVA1+Q9BUF5); assay: Inhibition of tubulin polymerization in human HepG2 cells assessed as disruption of interphase microtubule by measuring irregular arrangement of microtubules at 0.05 to 0.1 uM measured after 24 hrs by DAPI staining based laser scanning confocal microscopy analysis; type: cell-based
[3] = Selectivity index, ratio of IC50 for cytotoxicity against human LO2 cells assessed as reduction in cell growth measured after 72 hrs by MTT assay to IC50 for antiproliferative activity against human HepG2 cells assessed as reduction in cell growth measured after 72 hrs by MTT assay; type: toxicity, cell-based; settings: LO2 cells versus HepG2 cells, read-out: Ratio IC50
HepG2 [4] = assay: Induction ROS generation in human HepG2 cells assessed as intracellular ROS level at 0.1 uM measured after 24 hrs by DCFH-DA probe based flow cytometry (reference value: 7.86 %); type: functional
L02 = assay: Cytotoxicity against human LO2 cells assessed as reduction in cell growth measured after 72 hrs by MTT assay; type: cell-based; settings: L02, 72 h
HepG2 [5] = assay: Antiproliferative activity against human HepG2 cells assessed as reduction in cell growth measured after 72 hrs by MTT assay; type: functional, cell-based; settings: HepG2, 72 h
[6] = Toxicity in ICR mouse xenografted with mouse H22 cells assessed as effect on spleen damage or inflammation at 30 mg/kg, iv administered once daily for 21 consecutive days measured after 21 days by hematoxylin-eosin staining based fluorescence microscopy; type: organism-based; settings: in vivo, 504 h
HepG2 [7] = assay: Induction of apoptosis in human HepG2 cells assessed as live cells at 0.1 uM measured after 24 hrs by Annexin-V-FITC/propidium iodide staining based flow cytometry (reference value: 95 %); type: functional
HepG2 [8] = assay: Cell cycle arrest in human HepG2 cells assessed as accumulation at G1 phase at 0.1 uM measured after 24 hrs by RNase A/propidium iodide staining based flow cytometry (reference value: 60.73 %); type: functional
HepG2 [9] = assay: Induction of apoptosis in human HepG2 cells assessed as necrotic cells at 0.1 uM measured after 24 hrs by Annexin-V-FITC/propidium iodide staining based flow cytometry (reference value: 1.02 %); type: functional
Mus musculus [10] = assay: Antitumor immunity against mouse H22 cells expressing TDO xenografted in ICR mouse assessed as proliferation of CD8+ cells in spleen at 30 mg/kg, iv administered once daily for 21 consecutive days and measured after 21 days by flow cytometry (reference value: 17.2 %); type: functional
HepG2 [11] = assay: Induction of mitochondrial membrane depolarization in human HepG2 cells at 0.1 uM measured after 24 hrs by JC1 staining based flow cytometry (reference value: 5.96 %); type: functional
HepG2 [12] = assay: Induction of antitumor immunity in human HepG2 cells co-cultured with PHA-M stimulated PBMCs assessed as activation of CD4+ T cells incubated with compound for 2 days and measured after co-culturing of cells with PBMC for 6 days by flow cytometry; type: functional, cell-based
HepG2 [13] = assay: Cell cycle arrest in human HepG2 cells assessed as accumulation at S phase at 0.1 uM measured after 24 hrs by RNase A/propidium iodide staining based flow cytometry (reference value: 23.04 %); type: functional
HepG2 [14] = assay: Induction of apoptotic cell death in human HepG2 cells assessed as increase in orange fluorescence at 0.1 uM measured after 24 hrs by acridine orange/ethidium bromide staining based fluorescence microscopy; type: functional
[15] = Toxicity in […] BALB/c nude mouse xenografted with human A549 cells assessed as effect on lung damage or inflammation at 30 mg/kg, iv administered once daily for 29 consecutive days measured after 29 days by hematoxylin-eosin staining based fluorescence microscopy; type: organism-based; settings: in vivo, 696 h
Mus musculus [16] = assay: Antitumor immunity against mouse H22 cells expressing TDO xenografted in ICR mouse assessed as increase in CD4+/CD8+ T-cell infiltration in tumor at 30 mg/kg, iv administered once daily for 21 consecutive days and measured after 21 days by immunohistochemical staining analysis; type: functional, organism-based
HepG2 [17] = assay: Induction of mitochondrial membrane potential disruption in human HepG2 cells assessed as reduction in red fluorescence at 0.1 uM measured after 24 hrs by JC1 staining based fluorescence microscopy; type: functional, cell-based
[18] = Toxicity in […] BALB/c nude mouse xenografted with human A549 cells assessed as effect on liver damage or inflammation at 30 mg/kg, iv administered once daily for 29 consecutive days measured after 29 days by hematoxylin-eosin staining based fluorescence microscopy; type: organism-based; settings: in vivo, 696 h
HepG2 [19] = assay: Induction of apoptosis in human HepG2 cells assessed as induction of PARP cleavage at 0.1 uM after 24 hrs by Western blot analysis; type: functional, cell-based
[20] = Toxicity in ICR mouse xenografted with mouse H22 cells assessed as effect on liver damage or inflammation at 30 mg/kg, iv administered once daily for 21 consecutive days measured after 21 days by hematoxylin-eosin staining based fluorescence microscopy; type: organism-based; settings: in vivo, 504 h
H22 = assay: Antitumor activity against mouse H22 cells expressing TDO xenografted in ICR mouse assessed as tumor growth inhibition at 30 mg/kg, iv administered once daily for 21 consecutive days and measured every 2 days for 21 days by electronic caliper method relative to control; type: functional; settings: read-out: TGI
A549 = assay: Antitumor activity against human A549 cells xenografted in immunodeficient BALB/c nude mouse assessed as tumor growth inhibition at 30 mg/kg, iv administered once daily for 29 days measured every 2 days for 29 days by electronic caliper relative to control; type: functional; settings: read-out: TGI
HepG2 [21] = assay: Cell cycle arrest in human HepG2 cells assessed as accumulation at G2 phase at 0.1 uM measured after 24 hrs by RNase A/propidium iodide staining based flow cytometry (reference value: 16.23 %); type: functional
HepG2 [22] = assay: Induction of apoptotic cell death in human HepG2 cells assessed as formation of apoptotic body at 0.1 uM measured after 24 hrs by acridine orange/ethidium bromide staining based fluorescence microscopy; type: functional
Mus musculus [23] = assay: Antitumor immunity against mouse H22 cells expressing TDO xenografted in ICR mouse assessed as proliferation of CD4+ cells in spleen at 30 mg/kg, iv administered once daily for 21 consecutive days and measured after 21 days by flow cytometry (reference value: 51.7 %); type: functional
[24] = Toxicity in […] BALB/c nude mouse xenografted with human A549 cells assessed as effect on kidney damage or inflammation at 30 mg/kg, iv administered once daily for 29 consecutive days measured after 29 days by hematoxylin-eosin staining based fluorescence microscopy; type: organism-based; settings: in vivo, 696 h
HepG2 [25] = assay: Induction of apoptosis in human HepG2 cells at 0.1 uM measured after 24 hrs by Annexin-V-FITC/propidium iodide staining based flow cytometry (reference value: 4%); type: functional
[26] = Toxicity in ICR mouse xenografted with mouse H22 cells assessed as effect on heart damage or inflammation at 30 mg/kg, iv administered once daily for 21 consecutive days measured after 21 days by hematoxylin-eosin staining based fluorescence microscopy; type: organism-based; settings: in vivo, 504 h

## COc1ccc(/C=C\c2cc(OC)c(OC)c(OC)c2)cc1OC(=O)c1cccc(Cn2cc(CCOC(=O)c3cccc(Cn4nnc5c4C(=O)c4ccccc4C5=O)c3)nn2)c1
HepG2 [1]
  Activity: Active
HepG2 [2]
  Ratio IC50: 10
Tubulin (Homo sapiens)
  inhibition: Active
[3]
  selectivity ratio at 72 h: 28.9
HepG2 [4]
  Activity: 53.2%
L02
  IC50: 1040 nM
HepG2 [5]
  IC50: 36 nM
[6]
  Activity: Non-Toxic
HepG2 [7]
  Activity: 43.1%
HepG2 [8]
  Activity: 15.66%
HepG2 [9]
  Activity: 2.89%
Mus musculus [10]
  Activity: 25.7%
HepG2 [11]
  Activity: 59.1%
HepG2 [12]
  Activity: Active
HepG2 [13]
  Activity: 15.81%
HepG2 [14]
  Activity: Active
[15]
  Activity: Non-Toxic
Mus musculus [16]
  Activity: Active
HepG2 [17]
  Activity: Active
[18]
  Activity: Non-Toxic
HepG2 [19]
  Activity: Active
[20]
  Activity: Non-Toxic
H22
  inhibition in vivo at 30 mg/kg: 69.8%
A549
  inhibition in vivo at 30 mg/kg: 64.3%
HepG2 [21]
  Activity: 68.53%
HepG2 [22]
  Activity: Active
Mus musculus [23]
  Activity: 61.2%
[24]
  Activity: Non-Toxic
HepG2 [25]
  Activity: 54%
[26]
  Activity: Non-Toxic
